In the assay the test system is EGFPCAG78 RNA expressing SK-N-MC cells. The assay is described as follows: LDH cytotoxicity assay, EGFPCAG78 RNA expressing SK-N-MC cells. Format: cell-based, human. The following applies: 72 hours post-transfection and treatment. The protocol: It was next investigated whether DB213 could mitigate expanded CAG-repeat RNA-mediated toxicity in SK-N-MC human neuronal cell. […] Taken together, DB213 could suppress the expanded CAG RNA-mediated but not polyQ protein-mediate toxicity in human neuronal cell.
SK-N-MC human neuronal cells were seeded on a 24-well plate and lactate dehydrogenase enzyme activity in the cell culture medium was measured 72 hours post-transfection and drugs treatment using the Cytotox 96 non-radioactive cytotoxicity assay (Promega).

Each structure is given as a SMILES string.

Take `CN(C)CCNC(=N)c1ccc(C(=N)NCCN(C)C)cc1.Cl.Cl.Cl.Cl` [DB213_D1]: the “Cell death induced by EGFPCAG78 RNA (LDH assay)” value is “did not rescue the cell death”.

The values above are taken from patent US10143666B2, “Small molecule inhibitors targeting CAG-repeat RNA toxicity in polyglutamine diseases” (The Chinese University of Hong Kong, priority 2015, dated 2018).
